# Literature values in article PMC9377340 (Chemical biology & drug design, 2022).
# pIC50: −log10 of the molar value. Values joined by “and” are separate entries in the source; they are usually repeats but may differ in a detail not shown here. Equal values may be shown once.
# Molecular target: human FXIa (Homo sapiens, UniProt P03951)
# Details: ref Kar et al., 2020
# human FXIa, sequence (P03951 388-625 limits assumed): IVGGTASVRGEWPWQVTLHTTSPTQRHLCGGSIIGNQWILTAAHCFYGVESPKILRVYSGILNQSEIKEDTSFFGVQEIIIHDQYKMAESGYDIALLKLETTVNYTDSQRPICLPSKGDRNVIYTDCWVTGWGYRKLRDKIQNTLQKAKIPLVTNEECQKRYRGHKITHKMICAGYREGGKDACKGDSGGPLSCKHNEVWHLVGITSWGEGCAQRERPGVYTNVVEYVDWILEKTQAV
# human FXIa, sequence (P03951 19-387 limits assumed): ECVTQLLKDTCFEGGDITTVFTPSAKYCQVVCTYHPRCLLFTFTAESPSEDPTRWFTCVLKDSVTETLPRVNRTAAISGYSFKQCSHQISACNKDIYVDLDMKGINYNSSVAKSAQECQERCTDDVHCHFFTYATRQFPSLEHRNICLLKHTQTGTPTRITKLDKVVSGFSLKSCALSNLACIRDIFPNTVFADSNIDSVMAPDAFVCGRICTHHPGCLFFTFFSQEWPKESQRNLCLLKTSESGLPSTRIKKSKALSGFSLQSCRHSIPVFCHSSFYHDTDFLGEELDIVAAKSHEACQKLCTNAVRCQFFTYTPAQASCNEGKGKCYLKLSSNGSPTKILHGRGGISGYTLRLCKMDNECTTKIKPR
substance,measurement,setting,value
benzyl tetraphosphonate [BTP],pIC50,"read-out: IC50, FXIa inhibition",~5.13 and 5.13
same,"HS (Hill slope), FXIa inhibition",,1.9 ± 0.5
same,"ΔY (efficacy), FXIa inhibition",,68.0 ± 3.7%
